From article PMC3798018 (Nature chemical biology, 2009)
pIC50: −log10 of the molar value.

Columns and labels:
[1] = system: non-HKD-containing bacterial (Streptomyces chromofuscus) PLD; details: read-out: IC50 S. chromofuscus PLD; in vitro; cited from earlier work
human PLD1b = details: read-out: IC50 human PLD1b; in vitro; cited from earlier work
[2] = system: MDA-231 human breast cancer cell line; assay: Transwell matrigel invasion assay, MDA-231; type: cell-based; details: MDA-231, 20 µM, 48 h
[3] = system: 4T1 mouse metastatic breast cancer line; assay: Transwell matrigel invasion assay, 4T1; type: cell-based; details: 48 h
PMT cells = assay: Transwell matrigel invasion assay, PMT; type: cell-based, mouse; details: 20 µM, 48 h
rat PLD1.d311 = biological target: T1, rat PLD1.d311 (Rattus norvegicus, UniProt P70496); details: no noticeable difference between the two
T1 sequence (P70496 312-1036 isoform P70496-2): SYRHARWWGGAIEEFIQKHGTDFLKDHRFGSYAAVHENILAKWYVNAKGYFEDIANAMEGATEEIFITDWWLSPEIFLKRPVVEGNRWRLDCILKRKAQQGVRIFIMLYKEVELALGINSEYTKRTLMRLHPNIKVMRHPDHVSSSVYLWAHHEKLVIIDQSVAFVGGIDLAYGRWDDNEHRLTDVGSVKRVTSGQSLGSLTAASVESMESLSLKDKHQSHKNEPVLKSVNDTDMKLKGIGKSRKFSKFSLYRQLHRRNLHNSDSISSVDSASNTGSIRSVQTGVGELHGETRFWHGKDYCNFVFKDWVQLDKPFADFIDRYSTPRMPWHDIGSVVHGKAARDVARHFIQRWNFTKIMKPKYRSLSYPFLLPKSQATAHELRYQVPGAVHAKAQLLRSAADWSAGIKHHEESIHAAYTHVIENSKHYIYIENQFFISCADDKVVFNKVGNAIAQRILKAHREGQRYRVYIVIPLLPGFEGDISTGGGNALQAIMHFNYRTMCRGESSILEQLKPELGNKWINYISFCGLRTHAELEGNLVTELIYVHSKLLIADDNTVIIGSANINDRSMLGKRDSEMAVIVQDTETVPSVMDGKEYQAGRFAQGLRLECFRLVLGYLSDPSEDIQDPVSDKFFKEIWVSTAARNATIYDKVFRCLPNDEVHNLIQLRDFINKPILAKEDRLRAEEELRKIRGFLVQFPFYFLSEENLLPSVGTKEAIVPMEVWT

[4] = biological target: PLD2 (HEK293-gfpPLD2 cells) (Homo sapiens, UniProt O14939); assay: Endogenous PLD activity assay; type: cell-based
PLD = details: read-out: IC50 (PLD, indirect inhibitor); cited from earlier work

Sequence of PLD2 (HEK293-gfpPLD2 cells) (O14939 whole entry): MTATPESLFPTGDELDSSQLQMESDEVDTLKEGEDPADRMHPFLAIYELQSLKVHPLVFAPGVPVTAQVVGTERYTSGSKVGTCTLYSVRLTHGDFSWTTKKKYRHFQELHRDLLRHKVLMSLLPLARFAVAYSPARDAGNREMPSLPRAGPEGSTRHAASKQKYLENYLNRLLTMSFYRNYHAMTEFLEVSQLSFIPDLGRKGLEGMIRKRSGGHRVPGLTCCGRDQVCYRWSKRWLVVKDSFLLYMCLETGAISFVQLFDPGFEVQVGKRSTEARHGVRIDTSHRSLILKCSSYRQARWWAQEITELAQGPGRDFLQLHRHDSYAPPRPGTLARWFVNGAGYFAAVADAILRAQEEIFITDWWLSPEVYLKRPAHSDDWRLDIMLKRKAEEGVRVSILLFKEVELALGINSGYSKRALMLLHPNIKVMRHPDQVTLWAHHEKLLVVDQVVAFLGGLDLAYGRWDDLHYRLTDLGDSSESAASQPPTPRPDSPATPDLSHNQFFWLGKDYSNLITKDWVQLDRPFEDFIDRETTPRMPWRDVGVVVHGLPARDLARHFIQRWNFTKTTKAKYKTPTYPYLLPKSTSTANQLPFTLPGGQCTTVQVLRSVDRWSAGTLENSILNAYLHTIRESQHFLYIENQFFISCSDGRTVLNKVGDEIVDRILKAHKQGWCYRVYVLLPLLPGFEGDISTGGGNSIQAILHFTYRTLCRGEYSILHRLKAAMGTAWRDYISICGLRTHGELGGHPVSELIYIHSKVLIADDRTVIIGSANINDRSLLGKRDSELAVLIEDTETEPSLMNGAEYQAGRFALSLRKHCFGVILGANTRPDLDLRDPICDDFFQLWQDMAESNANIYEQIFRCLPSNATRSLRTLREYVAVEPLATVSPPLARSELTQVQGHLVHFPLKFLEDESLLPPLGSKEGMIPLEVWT

Structure (SMILES)	Invasive migration in transwell invasion assay [2]	Invasive migration in transwell invasion assay ([3]; 4T1, 20 µM)	Invasive migration in transwell invasion assay (PMT cells)	other results
CC(C)=CCC/C(C)=C/CC/C(C)=C/C1C(COP(=O)(O)OP(=O)(O)O)C1(C)CC/C=C(\C)CCC=C(C)C (stereo in doubt) [presqualene diphosphate]				pIC50 [1]: 7.00; pIC50 (human PLD1b): < 6.00
O=C(NCCN1CCC(n2c(=O)[nH]c3ccccc32)CC1)c1ccc2ccccc2c1 [Compound 56]	significantly (P < 0.05) decrease	significantly (P < 0.05) decrease	significantly (P < 0.05) decrease	
O=C(NCCN1CCC(n2c(=O)[nH]c3ccccc32)CC1)[C@@H]1C[C@H]1c1ccccc1 [Compound 58]	significantly decreased cell migration	significantly decreased cell migration	significantly decreased cell migration	Invasive migration in transwell invasion assay ([3]; 4T1, 200 nM): significantly decreased cell migration
O=C(NCCN1CCC(n2c(=O)[nH]c3ccccc32)CC1)c1cc(Br)c(Br)o1 [Compound 64]				Inhibition of basal and myr-Arf-1-stimulated activity of purified PLD1.d311 (rat PLD1.d311): directly inhibited
C[C@@H](CN1CCC(n2c(=O)[nH]c3cc(Cl)ccc32)CC1)NC(=O)c1ccc2ccccc2c1 [Compound 69]	significantly decreased cell migration	significantly decreased cell migration	significantly decreased cell migration	Invasive migration in transwell invasion assay ([3]; 4T1, 200 nM): significantly decreased cell migration
O=C(NCCN1CCC2(CC1)C(=O)NCN2c1ccccc1)c1ccc(C(F)(F)F)cc1 [Compound 70]				pIC50 [4]: < 4.70
O=C(NCCN1CCC2(CC1)C(=O)NCN2c1ccccc1)c1ccc2ccccc2c1 [Compound 72]	significantly decreased cell migration	significantly decreased cell migration	significantly decreased cell migration	
O=C(c1ccc(Cl)cc1)N(CCN1CCC2(CC1)C(=O)NCN2c1ccccc1)C(=O)c1ccc(Cl)cc1 [Compound 82]	significantly decreased cell migration	significantly decreased cell migration	significantly decreased cell migration	
Oc1ccc(/C=C/c2cc(O)cc(O)c2)cc1 [resveratrol]				pIC50 (PLD): < 4.22
